Measured values published in patent US11286268B1, “EIF4E-inhibiting compounds and methods” (EFFECTOR THERAPEUTICS, INC., priority 2019, dated 2022).

biological target: recombinant eIF4E (Homo sapiens (Human), UniProt P06730); assay: Fluorescence polarization competition assay for eIF4E binding potency; conditions: inhibition of eIF4E/EDA-m7GDP-ATTO-550 binding; calculated IC50 values, Table 4B; read-out: IC50
Method in brief: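 IC50 derived from fluorescence polarization over an 8-point, 3-fold compound series after 30 min room-temperature equilibration in the dark. Mix: eIF4E 75 nM pre-bound 5 min to 20 nM EDA-m^7GDP-ATTO-550; buffer 20 mM Tris pH 7.5, 100 mM NaCl, 1 mM DTT, 0.02% Tween-20; DMSO 1%.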

Sequence of recombinant eIF4E (P06730 whole entry): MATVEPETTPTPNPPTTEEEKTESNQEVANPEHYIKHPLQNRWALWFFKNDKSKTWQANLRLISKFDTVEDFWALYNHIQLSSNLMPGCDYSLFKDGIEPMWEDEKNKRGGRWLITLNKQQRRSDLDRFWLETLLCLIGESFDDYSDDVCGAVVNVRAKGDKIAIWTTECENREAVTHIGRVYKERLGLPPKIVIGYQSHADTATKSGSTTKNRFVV

Row | IC50 | Compound
1 | 13.8 nM | Cc1nc2cnc(N3CCN(CC(F)(F)Cl)CC3)c(C#N)c2c(=O)n1CCOc1ccc(Cl)cc1-c1ccnc2c(C(=O)O)csc12 [compound 1474]
2 | 7.2 nM | Cc1nc2cnc(N3CC4(C3)CN(C3CC(F)(F)C3)C4)c(C#N)c2c(=O)n1CCOc1ccc(Cl)cc1-c1ccnc2c(C(=O)O)csc12 [compound 1475]
3 | 16.2 nM | Cc1nc2cnc(N3CC4(C3)CN(C3C(C)(C)C3(C)C)C4)c(C#N)c2c(=O)n1CCOc1ccc(Cl)cc1-c1ccnc2c(C(=O)O)csc12 [compound 1476]
4 | 18.1 nM | Cc1nc2cnc(N(C)C3CCN(C4CC(F)(F)C4)CC3)c(C#N)c2c(=O)n1CCOc1ccc(Cl)cc1-c1ccnc2c(C(=O)O)csc12 [compound 1477]
5 | 13 nM | Cc1nc2cnc(N3C[C@H]4CN(CC(F)F)C[C@H]4C3)c(C#N)c2c(=O)n1CCOc1ccc(Cl)cc1-c1ccnc2c(C(=O)O)csc12 [compound 1478]
6 | 16.7 nM | Cc1nc2cnc(OC3CCN(CCF)CC3)c(C#N)c2c(=O)n1CCOc1ccc(Cl)cc1-c1ccnc2c(C(=O)O)csc12 [compound 1479]
7 | 20.8 nM | Cc1nc2cnc(C3CCC(F)(F)CC3)c(C#N)c2c(=O)n1CC#Cc1ccc(Cl)cc1-c1ccnc2c(C(=O)O)csc12 [compound 1481]
8 | 16.6 nM | Cc1nc2cnc(C3=CCC(F)(F)CC3)c(C#N)c2c(=O)n1CC#Cc1ccc(Cl)cc1-c1ccnc2c(C(=O)O)csc12 [compound 1482]
9 | 13.7 nM | Cc1nc2cnc(N3CCN(C(C)(C)CF)CC3)c(C#N)c2c(=O)n1CCOc1ccc(Cl)cc1-c1ccnc2c(C(=O)NS(C)(=O)=O)csc12 [compound 1483]
10 | 22.9 nM | Cc1nc2cnc(CC3CCN(CC(F)F)CC3)c(C#N)c2c(=O)n1CCOc1ccc(Cl)cc1-c1ccnc2c(C(=O)O)csc12 [compound 1484]
11 | 22.9 nM | Cc1nc2cnc(CCN(C)CC(F)F)c(C#N)c2c(=O)n1CCOc1ccc(Cl)cc1-c1ccnc2c(C(=O)O)csc12 [compound 1485]
12 | 10.7 nM | Cc1nc2cnc(N3CCN(CCC(F)(F)F)CC3)c(C#N)c2c(=O)n1CC#Cc1ccc(Cl)cc1-c1ccnc2c(C(=O)NS(C)(=O)=O)csc12 [compound 1486]
13 | 25.4 nM | Cc1nc2cnc(N3CCN(CC(F)F)CC3)c(C#N)c2c(=O)n1CC#Cc1ccc(Cl)cc1-c1ccnc2c(C(=O)NS(C)(=O)=O)csc12 [compound 1487]
14 | 12.3 nM | Cc1nc2cnc(N3CCN(CCF)CC3)c(C#N)c2c(=O)n1CC#Cc1ccc(Cl)cc1-c1ccnc2c(C(=O)NS(C)(=O)=O)csc12 [compound 1488]
15 | 29.1 nM | Cc1nc2cnc(N3CCC4(CC3)CCN4CC(F)F)c(C#N)c2c(=O)n1CC#Cc1ccc(Cl)cc1-c1ccnc2c(C(=O)O)csc12 [compound 1490]
16 | 29 nM | Cc1nc2cnc(N(C)CCN(C)CC(F)(F)F)c(C#N)c2c(=O)n1CC#Cc1ccc(Cl)cc1-c1ccnc2c(C(=O)O)csc12 [compound 1491]
17 | 20.1 nM | Cc1nc2cnc(CCN(C)CC(F)F)c(C#N)c2c(=O)n1CC#Cc1ccc(Cl)cc1-c1ccnc2c(C(=O)O)csc12 [compound 1492]
18 | 6.83 nM | Cc1nc2cnc(N3CCN(C4(C)CC(F)(F)C4)CC3)c(C#N)c2c(=O)n1CC#Cc1ccc(Cl)cc1-c1ccnc2c(C(=O)O)csc12 [compound 1493]
19 | 24.7 nM | Cc1nc2cnc(N(C)C3CCN(C4(C#N)CC4)CC3)c(C#N)c2c(=O)n1CC#Cc1ccc(Cl)cc1-c1ccnc2c(C(=O)O)csc12 [compound 1494]
20 | 7.09 nM | Cc1nc2cnc(N(C)C3CCN(C)CC3)c(C#N)c2c(=O)n1CC#Cc1ccc(Cl)cc1-c1ccnc2c(C(=O)O)csc12 [compound 1495]
21 | 32.5 nM | Cc1nc2cnc(N(C)C3CCN(C4CC4)C4(CC4)C3)c(C#N)c2c(=O)n1CC#Cc1ccc(Cl)cc1-c1ccnc2c(C(=O)O)csc12 (centres unmarked) [compound 1496]
22 | 12.9 nM | Cc1nc2cnc(N(C)CCCN(C)CC(F)(F)F)c(C#N)c2c(=O)n1CC#Cc1ccc(Cl)cc1-c1ccnc2c(C(=O)O)csc12 [compound 1497]
23 | 29.1 nM | Cc1nc2cnc(/C=C/CN(C)C)c(C#N)c2c(=O)n1CC#Cc1ccc(Cl)cc1-c1ccnc2c(C(=O)O)csc12 [compound 1498]
